Test results from the NIST ThermoML archive (doi:10.1016/j.fluid.2015.10.027).
Numbers after ± are expanded uncertainties.

Assay: heat capacity at constant pressure per volume; xn = mol fraction of the nth substance listed
Conditions: DSC, x1 = 0.054

CC1CCCC(C)N1 (stereo not given) [2,6-dimethylpiperidine] + [2H]O[2H]
Liquid mixture 1
Conditions | heat capacity [J/K/m3]
270.36 K | 4851000 ± 190000
270.67 K | 4851000 ± 190000
270.98 K | 4850000 ± 190000
271.3 K | 4843000 ± 190000
271.61 K | 4841000 ± 190000
271.92 K | 4831000 ± 190000
272.23 K | 4822000 ± 190000
272.54 K | 4813000 ± 190000
272.85 K | 4803000 ± 190000
273.16 K | 4797000 ± 190000
273.47 K | 4793000 ± 190000
273.78 K | 4785000 ± 180000
274.1 K | 4778000 ± 180000
274.41 K | 4775000 ± 180000
274.72 K | 4768000 ± 180000
275.03 K | 4764000 ± 180000
275.34 K | 4752000 ± 180000
275.65 K | 4755000 ± 180000
275.96 K | 4749000 ± 180000
276.27 K | 4742000 ± 180000
276.58 K | 4732000 ± 180000
276.89 K | 4728000 ± 180000
277.21 K | 4720000 ± 180000
277.52 K | 4717000 ± 180000
277.83 K | 4706000 ± 180000
278.14 K | 4700000 ± 180000
278.45 K | 4697000 ± 180000
278.76 K | 4694000 ± 180000
279.07 K | 4693000 ± 180000
279.38 K | 4689000 ± 180000
279.69 K | 4685000 ± 180000
280 K | 4677000 ± 180000
280.32 K | 4675000 ± 180000
280.63 K | 4668000 ± 180000
280.94 K | 4667000 ± 180000
281.25 K | 4661000 ± 180000
281.56 K | 4654000 ± 180000
281.87 K | 4654000 ± 180000
282.18 K | 4653000 ± 180000
282.49 K | 4642000 ± 180000
282.8 K | 4640000 ± 180000
283.12 K | 4641000 ± 180000
283.43 K | 4645000 ± 180000
283.74 K | 4645000 ± 180000
284.05 K | 4638000 ± 180000
284.36 K | 4635000 ± 180000
284.67 K | 4627000 ± 180000
284.98 K | 4628000 ± 180000
285.29 K | 4633000 ± 180000
285.6 K | 4630000 ± 180000
285.91 K | 4623000 ± 180000
286.23 K | 4610000 ± 180000
286.54 K | 4617000 ± 180000
286.85 K | 4623000 ± 180000
287.16 K | 4612000 ± 180000
287.47 K | 4611000 ± 180000
287.78 K | 4609000 ± 180000
288.09 K | 4606000 ± 180000
288.6 K | 4566000 ± 180000
288.82 K | 4558000 ± 180000
289.05 K | 4578000 ± 180000
289.28 K | 4580000 ± 180000
289.51 K | 4581000 ± 180000
289.74 K | 4539000 ± 180000
289.96 K | 4559000 ± 180000
290.19 K | 4609000 ± 180000
290.42 K | 4604000 ± 180000
290.65 K | 4587000 ± 180000
290.88 K | 4581000 ± 180000
291.11 K | 4554000 ± 180000
291.33 K | 4556000 ± 180000
291.56 K | 4590000 ± 180000
291.79 K | 4592000 ± 180000
292.02 K | 4589000 ± 180000
292.25 K | 4578000 ± 180000
292.48 K | 4643000 ± 180000
292.71 K | 4602000 ± 180000
292.94 K | 4606000 ± 180000
293.16 K | 4623000 ± 180000
293.39 K | 4660000 ± 180000
293.62 K | 4615000 ± 180000
293.85 K | 4629000 ± 180000
294.08 K | 4700000 ± 180000
294.31 K | 4655000 ± 180000
294.53 K | 4669000 ± 180000
294.76 K | 4707000 ± 180000
294.99 K | 4644000 ± 180000
295.22 K | 4708000 ± 180000
295.45 K | 4694000 ± 180000
295.68 K | 4733000 ± 180000
295.9 K | 4759000 ± 180000
296.13 K | 4861000 ± 190000
296.36 K | 5146000 ± 200000

102.6 kPa, Liquid
Conditions | heat capacity [J/K/m3]
296.59 K | 5567000 ± 220000
296.82 K | 5424000 ± 210000
297.05 K | 5334000 ± 210000
297.28 K | 5260000 ± 200000
297.5 K | 5164000 ± 200000
297.73 K | 5179000 ± 200000
297.96 K | 5136000 ± 200000
298.19 K | 5070000 ± 200000
298.42 K | 5083000 ± 200000
298.65 K | 5094000 ± 200000
298.88 K | 5093000 ± 200000
299.1 K | 5111000 ± 200000
299.33 K | 5023000 ± 200000
299.56 K | 5049000 ± 200000
299.79 K | 5063000 ± 200000
300.02 K | 5028000 ± 200000
300.25 K | 5015000 ± 190000
300.48 K | 5009000 ± 190000
300.7 K | 4961000 ± 190000
300.93 K | 4977000 ± 190000
301.16 K | 4985000 ± 190000
301.39 K | 4958000 ± 190000
301.62 K | 4957000 ± 190000
301.85 K | 4945000 ± 190000
302.07 K | 4916000 ± 190000
302.3 K | 4889000 ± 190000
302.53 K | 4922000 ± 190000
